Assay results: paper PMC7763113, “Design, synthesis, cytotoxic activity, and apoptosis inducing effects of 4- and N-substituted benzoyltaurinamide derivatives” (Turkish Journal of Chemistry, 2020)
“And” between values parts separate entries of the source, which are not always exact repeats. Identical values can stand only once. “Also recorded” adds a separate entry of the source. Like-named read-outs stand apart in the source and are kept apart here.

Experiments:
[1] = system: MDA-MB-231 triple-negative breast cancer cells; experiment: MTT cytotoxicity assay, MDA-MB-231; type: cell-based, human; settings: mean ± SD, read-out: Cytotoxic activity IC50, MDA-MB-231
Text: (§1) The human neuroblastoma cells (SH-SY5Y), triple-negative breast cancer cells (MDA-MB-231), and human pancreatic cancer cells (Panc1) used in this study were purchased from the American Type Culture Collection (ATCC). The cells were suspended in complete Dulbecco’s modified Eagle medium (DMEM) (Life Technologies, Gibco BRL, Grand Island, NY) supplemented with 10% fetal bovine serum (FBS, Hyclone), 1% penicillin and streptomycin (100 U/mL, Invitrogen) and plated in cell culture dishes. The cultures were maintained at 37 °C in a 5% CO2 95% humidified atmosphere. After reaching 85% confluence, the cells were transferred to 96-well plates or culture dishes. For MTT assays, the cells were seeded into 96-well cell culture plates at a density of 2 × 10^3 cells per well and allowed to adhere for 24 h. The cells were treated with fresh medium containing experimental compounds (100, 10, 1 µM) and incubated in a 5% CO2 incubator for 48 and 72 h. For protein analysis, the cells were seeded into 6-well cell culture plates at a density of 0.5 x 10^6 cells/well and allowed to adhere to the surface for 24 h. The stock solutions of the test compounds (5 mM) were prepared in sterile DMSO, and these stocks were then appropriately diluted with the complete culture medium. DMSO levels were maintained below 1% in the test concentrations.
(§2) Briefly, following exposures, MTT (at a final concentration of 0.5 mg/mL) was added to each well, and plates were incubated for 2 h at 37 °C in a 5% CO2 humidified incubator. The reaction mixture was removed, and DMSO was added to each well. The plates were shaken at room temperature, and the absorbance was measured at 570 nm and 630 nm using a microplate reader (VersaMax, Molecular Devices, USA). Percent survival was plotted relative to vehicle control cells, which were normalized to 100% survival.

[2] = system: SH-SY5Y human neuroblastoma cells; experiment: MTT cytotoxicity assay, SH-SY5Y; type: cell-based; settings: mean ± SD, read-out: Cytotoxic activity IC50, SH-SY5Y
Text: as §1, §2

[3] = system: PANC-1 human pancreatic cancer cells; experiment: MTT cytotoxicity assay, PANC-1; type: cell-based; settings: mean ± SD, read-out: Cytotoxic activity IC50, PANC-1
Text: as §1, §2

[4] = system: BAX, Bcl-2, Bcl-xL, caspase-3 and caspase-9 expression in MDA-MB-231 cell line; experiment: Western blot of apoptotic proteins, MDA-MB-231; type: cell-based, human; settings: for BAX protein levels: after only 24 h; for increase of caspase-9 activity: after only 48 h, relative to control; for decrease of Bcl-2 expression: after 24 and 48 h, compared to control
Method: (§3) The cells (0.5 × 10^6 cell/well) were seeded into 6 well plates and incubated for 24 h, and then treated with selected experimental compounds for 24 h and 48 h. Following incubation, the cells were washed with ice-cold 1X PBS and lysed in 1X cell lysis buffer. These lysates were quantified using the BCA protein assay. Then, the cell lysates were analyzed by western blot.
(§4) On a 12% (w/v) tris-glycine denaturing gel, 20 μg protein was separated by electrophoresis, and then transferred to a PVDF membrane. After blocking, the membrane was incubated with primary antibodies, anti-Bax rabbit monoclonal antibody, anti-Bcl-2 rabbit monoclonal antibody, anti-Bcl-xL rabbit monoclonal antibody, anti-caspase-3 rabbit monoclonal antibody, and anti-caspase-9 rabbit monoclonal antibody (1:1000, Cell Signaling Technology) at 4 °C overnight. Following the incubation, the membrane was incubated with an anti-β-actin mouse monoclonal antibody (1:1000, Cell Signaling Technology) at room temperature for 1 h. After washing, the membrane was incubated with peroxidase-conjugated secondary antibodies for 1 h to visualize labeled proteins by enhanced chemiluminescence.

[5] = MTT cytotoxicity assay, MCF-10a (nontumorigenic); type: cell-based; settings: MCF-10a nontumorigenic mammary cells, MCF-10a nontumorigenic human mammary cell line, mean ± SD, read-out: Cytotoxic activity IC50, MCF-10a
Text: [The source words this procedure for another cell line and reports this cell line under the same test.] as §1, §2

[6] = system: BAX, Bcl-2, Bcl-xL, caspase-3 and caspase-9 expression in PANC-1 cell line; experiment: Western blot of apoptotic proteins, PANC-1; type: cell-based, human; settings: at IC50, 24 and 48 h, vs control
Method: as §3, §4

MDA-MB-231 cells = experiment: Annexin V-FITC/PI flow cytometry, MDA-MB-231; type: cell-based, human; settings: 48 h, control 1.2%
Method: (§5) The cells were harvested after 48 h, washed with PBS, and analyzed using the Annexin V FITC/PI Apoptosis Detection kit (BioVision, Mountain View, CA, USA) with a benchtop flow cytometer (Accuri C6 flow cytometry, Becton Dickinson).

SH-SY5Y cells = experiment: Annexin V-FITC/PI flow cytometry, SH-SY5Y; type: cell-based, human; settings: 48 h, control 3.2%
Method: as §5

PANC-1 cells = experiment: Annexin V-FITC/PI flow cytometry, PANC-1; type: cell-based, human; settings: at cytotoxic concentrations, 48 h
Method: as §5

melting point [°C] | Compound | IC50 ([1]; Homo sapiens, MDA-MB-231, MTT) [µM] | IC50 ([2]; Homo sapiens, SH-SY5Y) [µM] | IC50 ([3]; Homo sapiens, PANC-1, MTT) [µM] | BAX protein levels ([4]; Western blot) | IC50 [5] [µM] | further results
160 to 161 | COc1ccc(NS(=O)(=O)CCNC(=O)c2ccc(Cl)cc2)cc1 [Compound 14, 4-Chloro-N-(2-(N-(4-methoxyphenyl)sulfamoyl)ethyl)benzamide] | 19.9 ± 1.7 | 26 ± 1.4 | 22.5 ± 1.7 | significantly increased | 109 ± 1.2 | increase of caspase-9 activity [4]: 1.18 fold; BAX expression [6]: increased; Bcl-2 expression [6]: decrease; Bcl-xL expression [6]: decrease; caspase-3 expression [6]: increased; caspase-9 expression [6]: increased; percent of the positive apoptotic cells (MDA-MB-231 cells): 1.6%; apoptotic cell ratios (SH-SY5Y cells): 3.8%; apoptotic cell ratios (Annexin V-FITC/PI result) (PANC-1 cells): no significant changes; also recorded: negative
123.7 to 124.7 | O=C(NCCS(=O)(=O)Nc1ccccc1)c1ccccc1 [Compound 1, N-(2-(N-phenylsulfamoyl)ethyl)benzamide] | 140.4 ± 1.1 | 92.2 ± 1.5 | 86.7 ± 1.4 | – | 78.2 ± 1.6 | –
176 to 177 | COc1ccc(C(=O)NCCS(N)(=O)=O)cc1 [Compound 11, 4-Methoxy-N-(2-sulfamoylethyl)benzamide] | 114 ± 1.3 | 237.8 ± 1.7 | 83.8 ± 1.5 | – | 81.1 ± 1.4 | –
112 to 113 | COc1ccc(NS(=O)(=O)CCNC(=O)c2ccc(OC)cc2)cc1 [Compound 15, 4-Methoxy-N-(2-(N-(4-methoxyphenyl)sulfamoyl)ethyl)benzamide] | 33.9 ± 1.8 | 39.9 ± 1.6 | 18.1 ± 1.6 | significantly increased | 118 ± 1.4 | caspase-3 expression (in words) ([4]; Western blot): increased; caspase-9 expression levels (in words) ([4]; Western blot): did not exert any effect; decrease of Bcl-2 expression [4]: 2- to 3 fold; Bcl-xL expression [6]: opposite effect; caspase-3 expression [6]: opposite effect; caspase-9 expression [6]: opposite effect; percent of the positive apoptotic cells (MDA-MB-231 cells): 1.4%; apoptotic cell ratios (SH-SY5Y cells): 3.9%; apoptotic cell ratios (Annexin V-FITC/PI result) (PANC-1 cells): no significant changes; also recorded: negative
127 to 128 | COc1ccc(NS(=O)(=O)CCNC(=O)c2ccc(C)cc2)cc1 [Compound 16, N-(2-(N-(4-methoxyphenyl)sulfamoyl)ethyl)-4-methylbenzamide] | 15.7 ± 1.9 | 32.7 ± 1.7 | 21.4 ± 1.7 | – | 132.9 ± 1.2 | –
143.8 to 144.8 | O=C(NCCS(=O)(=O)Nc1ccccc1)c1ccc(Cl)cc1 [Compound 2, 4-Chloro-N-(2-(N-phenylsulfamoyl)ethyl)benzamide] | 99.7 ± 1.1 | 29 ± 1.5 | 86.6 | significantly increased | 232.9 ± 2.1 | IC50 ([3]; MTT): 86.6 ± 1.6 µM; BAX expression [6]: significantly upregulated; Bcl-2 expression [6]: significantly upregulated
121.3 to 122.3 | COc1ccc(C(=O)NCCS(=O)(=O)Nc2ccccc2)cc1 [Compound 3, 4-Methoxy-N-(2-(N-phenylsulfamoyl)ethyl)benzamide] | 111 ± 1.2 | 57.4 ± 1.6 | 104 ± 1.6 | – | 98.9 ± 1.2 | –
149.7 to 150.7 | Cc1ccc(C(=O)NCCS(=O)(=O)Nc2ccccc2)cc1 [Compound 4, 4-Methyl-N-(2-(N-phenylsulfamoyl)ethyl)benzamide] | 89.7 ± 1.5 | 75.9 ± 1.6 | 86.6 ± 1.4 | – | 132 ± 1.7 | –
110 to 111 | COc1ccc(NS(=O)(=O)CCNC(=O)c2ccccc2)cc1 [Compound 13, N-(2-(N-(4-methoxyphenyl)sulfamoyl)ethyl)benzamide] | 76.1 ± 1.6 | 47.5 ± 1.5 | 17.9 ± 2.1 | – | 217.8 ± 1.3 | –

Further lines, the compound ahead of its results:

Compound | melting point [°C] | IC50 ([1]; Homo sapiens, MDA-MB-231, MTT) [µM] | IC50 ([2]; Homo sapiens, SH-SY5Y) [µM] | IC50 ([3]; Homo sapiens, PANC-1, MTT) [µM] | BAX protein levels ([4]; Western blot) | IC50 [5] [µM] | further results
O=C(NCCS(=O)(=O)N1CCOCC1)c1ccc(Cl)cc1 [Compound 6, 4-Chloro-N-(2-(morpholinosulfonyl)ethyl)benzamide] | 162 to 163 | 79.1 | 80.6 | 8.8 ± 2.1 | significantly increased | 70.7 ± 1.8 | IC50 ([1]; MTT): 136 ± 1.5 µM; IC50 [2]: 80.6 ± 1.9 µM; increase of caspase-9 activity [4]: 1.06 fold
Cc1ccc(C(=O)NCCS(N)(=O)=O)cc1 [Compound 12, 4-Methyl-N-(2-sulfamoylethyl)benzamide] | 181 to 182 | 81 ± 1.6 | 79.5 ± 1.8 | 44.6 ± 1.9 | – | 106 ± 1.4 | –
Cc1ccc(C(=O)NCCS(=O)(=O)N2CCOCC2)cc1 [Compound 8, 4-Methyl-N-(2-(morpholinosulfonyl)ethyl)benzamide] | 174.2 to 175.2 | 81.5 ± 1.2 | 79.3 ± 1.6 | 120.3 ± 1.2 | – | 81.4 ± 1.3 | –
COc1ccc(C(=O)NCCS(=O)(=O)N2CCOCC2)cc1 [Compound 7, 4-Methoxy-N-(2-(morpholinosulfonyl)ethyl)benzamide] | 183.5 to 184.5 | 136 | 134 ± 1.7 | 1.2 ± 1.8 | significantly increased | 118 ± 1.2 | IC50 ([1]; MTT): 79 µM and 77 µM; caspase-3 expression (in words) ([4]; Western blot): lack of change; decrease of Bcl-2 expression [4]: 2- to 3 fold; BAX expression [6]: effectively upregulated; Bcl-2 expression [6]: did not show any effect; Bcl-xL expression [6]: slightly decreased; caspase-3 expression [6]: effectively upregulated; caspase-9 expression [6]: effectively upregulated; percent of the positive apoptotic cells (MDA-MB-231 cells): no changes; apoptotic cell ratios (SH-SY5Y cells): no positive results; apoptotic cell ratios (Annexin V-FITC/PI result) (PANC-1 cells): no significant changes; also recorded: negative
NS(=O)(=O)CCNC(=O)c1ccccc1 [Compound 9, N-(2-sulfamoylethyl)benzamide] | 162 to 163 | 99.8 ± 1.7 | 81.1 ± 2.1 | 85.5 ± 1.7 | – | 109 ± 1.1 | –
O=C(NCCS(=O)(=O)N1CCOCC1)c1ccccc1 [Compound 5, N-(2-(morpholinosulfonyl)ethyl)benzamide] | 107 to 108 | 103 ± 1.7 | 118 ± 1.8 | 24.2 ± 2.1 | – | 89.6 ± 1.5 | –
NS(=O)(=O)CCNC(=O)c1ccc(Cl)cc1 [Compound 10, 4-Chloro-N-(2-sulfamoylethyl)benzamide] | 158 to 159 | 77 | 38.6 ± 1.6 | 89.1 ± 1.7 | significantly increased | 172.1 ± 1.4 | IC50 ([1]; MTT): 79.1 ± 1.3 µM; increase of caspase-9 activity [4]: 1.12 fold; caspase-3 expression [6]: effectively increased
